# Assay results taken from ChEMBL document CHEMBL3885881, “DrugMatrix”.
# Species on record: Rattus norvegicus
# Assay: DrugMatrix - Regimen: Daily Repeat
# Type: toxicity, organism-based, Sprague-Dawley
# Set-up: regimen Daily Repeat, gender Male, age 6-8 weeks
# Details: in vivo, po, route oral GAVAGE, […]; for ABSOLUTE BASOPHIL / ABSOLUTE EOSINOPHIL / ABSOLUTE LYMPHOCYTE / ABSOLUTE MONOCYTE / ABSOLUTE SEGMENTED NEUTROPHIL / BASOPHIL / EOSINOPHIL / ERYTHROCYTE COUNT / HEMATOCRIT / HEMOGLOBIN / LEUKOCYTE COUNT / LYMPHOCYTE / MEAN CORPUSCULAR HEMOGLOBIN / MEAN CORPUSCULAR HEMOGLOBIN CONCENTRATION / MEAN CORPUSCULAR VOLUME / MONOCYTE / NEUTROPHIL / NUCLEATED RED BLOOD CELLS / PLATELET COUNT: tissue Blood; for ALANINE AMINOTRANSFERASE / ALBUMIN / ALKALINE PHOSPHATASE / ASPARTATE AMINOTRANSFERASE / BLOOD UREA NITROGEN / CARBON DIOXIDE / CHLORIDE / CHOLESTEROL / CREATINE PHOSPHOKINASE / CREATININE / GLUCOSE / LACTATE DEHYDROGENASE / LIPASE / PHOSPHORUS / POTASSIUM / SODIUM / TOTAL BILIRUBIN / TOTAL PROTEIN / URIC ACID: tissue Plasma
# [1] = 250 mg/kg, 72 h, dose level Low, time 3 day
# [2] = 250 mg/kg, 120 h, dose level Low, time 5 day
# [3] = 930 mg/kg, 72 h, dose level High, time 3 day
# [4] = 930 mg/kg, 120 h, dose level High, time 5 day
smiles,measurement,setting,value
CC12CCC(CC1)C(C)(C)O2 [EUCALYPTOL],ABSOLUTE BASOPHIL,[1],0 CELLS/uL
same,ABSOLUTE EOSINOPHIL,[1],0 CELLS/uL
same,ABSOLUTE LYMPHOCYTE,[1],12865.33 CELLS/uL
same,ABSOLUTE MONOCYTE,[1],104 CELLS/uL
same,ABSOLUTE SEGMENTED NEUTROPHIL,[1],1797.33 CELLS/uL
same,BASOPHIL,[1],0%
same,EOSINOPHIL,[1],0%
same,ERYTHROCYTE COUNT,[1],5.22 x10E6/uL
same,HEMATOCRIT,[1],32.73%
same,HEMOGLOBIN,[1],12.97 G/DL
same,LEUKOCYTE COUNT,[1],14.77 x10E3/uL
same,LYMPHOCYTE,[1],87.33%
same,MEAN CORPUSCULAR HEMOGLOBIN,[1],24.83 pg
same,MEAN CORPUSCULAR HEMOGLOBIN CONCENTRATION,[1],39.63 G/DL
same,MEAN CORPUSCULAR VOLUME,[1],62.77 fL
same,MONOCYTE,[1],0.67%
same,NEUTROPHIL,[1],12%
same,NUCLEATED RED BLOOD CELLS,[1],0 /100WBC
same,PLATELET COUNT,[1],1143.67 x10E3/uL
same,ALANINE AMINOTRANSFERASE,[1],68.67 u/L
same,ALBUMIN,[1],4.03 G/DL
same,ALKALINE PHOSPHATASE,[1],413.33 u/L
same,ASPARTATE AMINOTRANSFERASE,[1],95.33 u/L
same,BLOOD UREA NITROGEN,[1],12.33 mg/dL
same,CARBON DIOXIDE,[1],24 mmol/L
same,CHLORIDE,[1],103.67 MEQ/L
same,CHOLESTEROL,[1],84.67 mg/dL
same,CREATINE PHOSPHOKINASE,[1],439.67 u/L
same,CREATININE,[1],0.17 mg/dL
same,GLUCOSE,[1],160.33 mg/dL
same,LACTATE DEHYDROGENASE,[1],154.67 u/L
same,LIPASE,[1],10.33 u/L
same,PHOSPHORUS,[1],12.5 mg/dL
same,POTASSIUM,[1],6.64 MEQ/L
same,SODIUM,[1],145.33 MEQ/L
same,TOTAL BILIRUBIN,[1],0.2 mg/dL
same,TOTAL PROTEIN,[1],5.53 G/DL
same,URIC ACID,[1],1.43 mg/dL
same,ABSOLUTE BASOPHIL,[2],0 CELLS/uL
same,ABSOLUTE EOSINOPHIL,[2],0 CELLS/uL
same,ABSOLUTE LYMPHOCYTE,[2],15020.67 CELLS/uL
same,ABSOLUTE MONOCYTE,[2],301.67 CELLS/uL
same,ABSOLUTE SEGMENTED NEUTROPHIL,[2],1277.67 CELLS/uL
same,BASOPHIL,[2],0%
same,EOSINOPHIL,[2],0%
same,ERYTHROCYTE COUNT,[2],5.46 x10E6/uL
same,HEMATOCRIT,[2],34.57%
same,HEMOGLOBIN,[2],14.17 G/DL
same,LEUKOCYTE COUNT,[2],16.6 x10E3/uL
same,LYMPHOCYTE,[2],90.33%
same,MEAN CORPUSCULAR HEMOGLOBIN,[2],25.97 pg
same,MEAN CORPUSCULAR HEMOGLOBIN CONCENTRATION,[2],40.97 G/DL
same,MEAN CORPUSCULAR VOLUME,[2],63.33 fL
same,MONOCYTE,[2],1.67%
same,NEUTROPHIL,[2],8%
same,NUCLEATED RED BLOOD CELLS,[2],0.67 /100WBC
same,PLATELET COUNT,[2],1304.67 x10E3/uL
same,ALANINE AMINOTRANSFERASE,[2],61 u/L
same,ALBUMIN,[2],4.2 G/DL
same,ALKALINE PHOSPHATASE,[2],377.33 u/L
same,ASPARTATE AMINOTRANSFERASE,[2],78.33 u/L
same,BLOOD UREA NITROGEN,[2],16 mg/dL
same,CARBON DIOXIDE,[2],24.33 mmol/L
same,CHLORIDE,[2],103 MEQ/L
same,CHOLESTEROL,[2],71 mg/dL
same,CREATINE PHOSPHOKINASE,[2],231.33 u/L
same,CREATININE,[2],0.17 mg/dL
same,GLUCOSE,[2],153.67 mg/dL
same,LACTATE DEHYDROGENASE,[2],170.67 u/L
same,LIPASE,[2],10 u/L
same,PHOSPHORUS,[2],12.6 mg/dL
same,POTASSIUM,[2],6.77 MEQ/L
same,SODIUM,[2],146.3 MEQ/L
same,TOTAL BILIRUBIN,[2],0.13 mg/dL
same,TOTAL PROTEIN,[2],5.97 G/DL
same,URIC ACID,[2],1.53 mg/dL
same,ABSOLUTE BASOPHIL,[3],0 CELLS/uL
same,ABSOLUTE EOSINOPHIL,[3],0 CELLS/uL
same,ABSOLUTE LYMPHOCYTE,[3],15782.67 CELLS/uL
same,ABSOLUTE MONOCYTE,[3],121.67 CELLS/uL
same,ABSOLUTE SEGMENTED NEUTROPHIL,[3],2129 CELLS/uL
same,BASOPHIL,[3],0%
same,EOSINOPHIL,[3],0%
same,ERYTHROCYTE COUNT,[3],5.63 x10E6/uL
same,HEMATOCRIT,[3],35.83%
same,HEMOGLOBIN,[3],14.2 G/DL
same,LEUKOCYTE COUNT,[3],18.03 x10E3/uL
same,LYMPHOCYTE,[3],87.67%
same,MEAN CORPUSCULAR HEMOGLOBIN,[3],25.3 pg
same,MEAN CORPUSCULAR HEMOGLOBIN CONCENTRATION,[3],39.67 G/DL
same,MEAN CORPUSCULAR VOLUME,[3],63.73 fL
same,MONOCYTE,[3],0.67%
same,NEUTROPHIL,[3],11.67%
same,NUCLEATED RED BLOOD CELLS,[3],0 /100WBC
same,PLATELET COUNT,[3],1268 x10E3/uL
same,ALANINE AMINOTRANSFERASE,[3],85.33 u/L
same,ALBUMIN,[3],4.33 G/DL
same,ALKALINE PHOSPHATASE,[3],424.33 u/L
same,ASPARTATE AMINOTRANSFERASE,[3],90.67 u/L
same,BLOOD UREA NITROGEN,[3],16.67 mg/dL
same,CARBON DIOXIDE,[3],23.33 mmol/L
same,CHLORIDE,[3],103 MEQ/L
same,CHOLESTEROL,[3],84.33 mg/dL
same,CREATINE PHOSPHOKINASE,[3],211.67 u/L
same,CREATININE,[3],0.24 mg/dL
same,GLUCOSE,[3],153.67 mg/dL
same,LACTATE DEHYDROGENASE,[3],86.67 u/L
same,LIPASE,[3],11.67 u/L
same,PHOSPHORUS,[3],12.2 mg/dL
same,POTASSIUM,[3],6.76 MEQ/L
same,SODIUM,[3],146.43 MEQ/L
same,TOTAL BILIRUBIN,[3],0.13 mg/dL
same,TOTAL PROTEIN,[3],6.03 G/DL
same,URIC ACID,[3],1.67 mg/dL
same,ABSOLUTE BASOPHIL,[4],0 CELLS/uL
same,ABSOLUTE EOSINOPHIL,[4],0 CELLS/uL
same,ABSOLUTE LYMPHOCYTE,[4],18083.67 CELLS/uL
same,ABSOLUTE MONOCYTE,[4],256.67 CELLS/uL
same,ABSOLUTE SEGMENTED NEUTROPHIL,[4],1226.33 CELLS/uL
same,BASOPHIL,[4],0%
same,EOSINOPHIL,[4],0%
same,ERYTHROCYTE COUNT,[4],5.66 x10E6/uL
same,HEMATOCRIT,[4],35.63%
same,HEMOGLOBIN,[4],14.2 G/DL
same,LEUKOCYTE COUNT,[4],19.57 x10E3/uL
same,LYMPHOCYTE,[4],92.33%
same,MEAN CORPUSCULAR HEMOGLOBIN,[4],25.1 pg
same,MEAN CORPUSCULAR HEMOGLOBIN CONCENTRATION,[4],39.87 G/DL
same,MEAN CORPUSCULAR VOLUME,[4],62.97 fL
same,MONOCYTE,[4],1.33%
same,NEUTROPHIL,[4],6.33%
same,NUCLEATED RED BLOOD CELLS,[4],0 /100WBC
same,PLATELET COUNT,[4],1326.67 x10E3/uL
same,ALANINE AMINOTRANSFERASE,[4],58 u/L
same,ALBUMIN,[4],4.17 G/DL
same,ALKALINE PHOSPHATASE,[4],302.33 u/L
same,ASPARTATE AMINOTRANSFERASE,[4],76.33 u/L
same,BLOOD UREA NITROGEN,[4],14 mg/dL
same,CARBON DIOXIDE,[4],26.33 mmol/L
same,CHLORIDE,[4],101.67 MEQ/L
same,CHOLESTEROL,[4],73 mg/dL
same,CREATINE PHOSPHOKINASE,[4],275 u/L
same,CREATININE,[4],0.22 mg/dL
same,GLUCOSE,[4],158 mg/dL
same,LACTATE DEHYDROGENASE,[4],114.33 u/L
same,LIPASE,[4],11 u/L
same,PHOSPHORUS,[4],11.8 mg/dL
same,POTASSIUM,[4],6.84 MEQ/L
same,SODIUM,[4],145.5 MEQ/L
same,TOTAL BILIRUBIN,[4],0.23 mg/dL
same,TOTAL PROTEIN,[4],5.97 G/DL
same,URIC ACID,[4],1.8 mg/dL
